# From US20240254119A1 (THIRD HARMONIC BIO, INC., priority 2022, published 2024)
# Experiments:
# [1] = target: T1, BCRP (BCRP-MDCKII monolayer) (Homo sapiens, UniProt Q9UNQ0); assay: MDCKII-BCRP bidirectional transport assay; assay type: in vitro ADME; conditions: for MDCK-BCRP: Papp A-B: apical to basolateral
# T1 construct: host or cells: MDCKII (canine kidney) cells
# T1 sequence (Q9UNQ0 1-655): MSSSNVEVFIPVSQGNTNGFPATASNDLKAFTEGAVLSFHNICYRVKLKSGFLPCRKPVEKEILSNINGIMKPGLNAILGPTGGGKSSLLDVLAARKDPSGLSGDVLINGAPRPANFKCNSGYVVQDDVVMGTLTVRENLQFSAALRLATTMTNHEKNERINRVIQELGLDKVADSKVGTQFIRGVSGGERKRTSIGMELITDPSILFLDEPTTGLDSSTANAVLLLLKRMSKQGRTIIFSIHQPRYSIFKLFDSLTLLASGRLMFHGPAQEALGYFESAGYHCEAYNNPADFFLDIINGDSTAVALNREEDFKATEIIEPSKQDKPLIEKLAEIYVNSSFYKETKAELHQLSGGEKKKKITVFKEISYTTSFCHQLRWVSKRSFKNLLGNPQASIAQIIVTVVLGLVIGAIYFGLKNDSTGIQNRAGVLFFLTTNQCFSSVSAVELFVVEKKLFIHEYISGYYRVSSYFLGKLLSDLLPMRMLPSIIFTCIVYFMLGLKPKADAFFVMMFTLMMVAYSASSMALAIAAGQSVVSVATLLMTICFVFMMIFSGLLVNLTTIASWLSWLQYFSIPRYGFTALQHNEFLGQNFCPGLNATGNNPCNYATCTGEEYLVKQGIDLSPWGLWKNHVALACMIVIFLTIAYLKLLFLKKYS
# In short: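 Efflux ratios were derived from Papp values, alongside recovery, with compounds quantified by LC-MS/MS. Both directions were tested in duplicate across BCRP-MDCKII monolayers used on days 12–15. Incubation ran 120 min at 37° C, 5% CO2, after a 15 min preincubation in assay buffer.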
# [2] = target: T2, PDGFRα (Homo sapiens, UniProt P16234); assay: Caliper biochemical assay, PDGFRα; conditions: Table 6
# T2 construct: purchased Millipore 14-467 (lot 26321_ACTI)
# T2 sequence (P16234 24-1089): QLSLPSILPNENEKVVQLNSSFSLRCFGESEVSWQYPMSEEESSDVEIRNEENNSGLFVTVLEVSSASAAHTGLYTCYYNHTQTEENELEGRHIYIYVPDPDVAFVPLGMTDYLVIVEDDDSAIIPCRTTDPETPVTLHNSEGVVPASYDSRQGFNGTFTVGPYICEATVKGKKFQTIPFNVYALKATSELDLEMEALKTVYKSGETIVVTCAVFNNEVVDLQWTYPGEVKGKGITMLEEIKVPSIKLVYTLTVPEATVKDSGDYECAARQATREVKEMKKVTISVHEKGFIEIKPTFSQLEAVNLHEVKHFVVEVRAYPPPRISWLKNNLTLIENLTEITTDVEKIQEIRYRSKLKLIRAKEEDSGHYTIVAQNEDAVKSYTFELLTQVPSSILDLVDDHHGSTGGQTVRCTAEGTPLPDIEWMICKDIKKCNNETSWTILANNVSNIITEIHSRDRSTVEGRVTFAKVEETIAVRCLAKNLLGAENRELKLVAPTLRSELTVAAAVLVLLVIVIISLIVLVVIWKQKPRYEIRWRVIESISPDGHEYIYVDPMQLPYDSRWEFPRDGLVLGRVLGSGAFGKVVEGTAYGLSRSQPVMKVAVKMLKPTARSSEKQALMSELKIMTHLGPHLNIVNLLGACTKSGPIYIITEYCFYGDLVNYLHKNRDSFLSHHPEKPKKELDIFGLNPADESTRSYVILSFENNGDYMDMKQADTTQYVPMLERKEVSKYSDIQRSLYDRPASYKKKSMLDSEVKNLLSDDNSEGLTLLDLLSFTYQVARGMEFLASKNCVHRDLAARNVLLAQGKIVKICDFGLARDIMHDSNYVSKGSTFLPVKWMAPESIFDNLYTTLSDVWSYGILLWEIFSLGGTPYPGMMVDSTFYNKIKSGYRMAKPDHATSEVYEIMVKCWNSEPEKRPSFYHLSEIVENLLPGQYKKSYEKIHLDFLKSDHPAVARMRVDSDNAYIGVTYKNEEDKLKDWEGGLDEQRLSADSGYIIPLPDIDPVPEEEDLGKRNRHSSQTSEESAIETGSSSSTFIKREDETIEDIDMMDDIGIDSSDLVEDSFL
# In short: (§1)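 Mobility-shift readout: after EDTA quench, fluorescent peptide and product are resolved electrophoretically on a LabChip and measured by fluorescence. Reactions contain enzyme, carboxyfluorescein peptide, ATP, Mn^2+ and compound, run 3 h at 25° C; 100% inhibition control lacks enzyme.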
# [3] = target: T3, wtKIT (Homo sapiens, UniProt P10721); assay: Caliper biochemical assay, wtKIT; conditions: Table 6, read-out: KIT Biochemical IC50 avg
# T3 construct: 1888289AM in the reaction mixtures
# T3 sequence (P10721 26-976): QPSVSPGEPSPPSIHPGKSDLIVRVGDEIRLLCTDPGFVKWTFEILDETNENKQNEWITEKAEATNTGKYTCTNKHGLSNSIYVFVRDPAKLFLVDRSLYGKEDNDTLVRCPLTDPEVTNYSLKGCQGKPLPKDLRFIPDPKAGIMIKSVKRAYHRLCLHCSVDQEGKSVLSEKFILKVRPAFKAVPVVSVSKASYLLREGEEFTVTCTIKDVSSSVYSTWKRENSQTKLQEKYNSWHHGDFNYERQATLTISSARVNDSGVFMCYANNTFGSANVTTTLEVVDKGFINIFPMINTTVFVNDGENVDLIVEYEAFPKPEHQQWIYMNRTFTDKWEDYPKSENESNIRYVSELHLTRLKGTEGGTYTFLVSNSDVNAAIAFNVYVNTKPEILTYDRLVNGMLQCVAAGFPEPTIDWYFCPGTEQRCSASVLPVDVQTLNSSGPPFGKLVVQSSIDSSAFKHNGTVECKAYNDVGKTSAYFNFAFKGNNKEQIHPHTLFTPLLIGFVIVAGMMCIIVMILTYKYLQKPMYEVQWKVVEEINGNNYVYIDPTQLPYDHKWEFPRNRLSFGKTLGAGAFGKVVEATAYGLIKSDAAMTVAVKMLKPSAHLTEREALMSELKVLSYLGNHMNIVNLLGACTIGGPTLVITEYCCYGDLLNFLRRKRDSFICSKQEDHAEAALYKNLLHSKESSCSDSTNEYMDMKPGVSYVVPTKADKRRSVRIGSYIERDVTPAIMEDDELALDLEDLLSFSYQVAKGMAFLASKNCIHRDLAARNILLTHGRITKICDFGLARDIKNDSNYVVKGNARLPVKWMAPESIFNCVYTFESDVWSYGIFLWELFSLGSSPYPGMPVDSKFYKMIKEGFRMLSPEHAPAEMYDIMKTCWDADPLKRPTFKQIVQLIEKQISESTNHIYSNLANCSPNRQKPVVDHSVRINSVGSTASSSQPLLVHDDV
# In short: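 Mobility-shift read-out: after EDTA stop, fluorescent peptide substrate and product resolved electrophoretically on LabChip 3000. Reaction ran 3 h at 25° C with 400 μM ATP, Mn^2+ cofactor, 5.0 nM wtKIT, 1 μM FAM-peptide, pH 7.5 HEPES buffer; no-enzyme wells defined full inhibition.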
# [4] = Kinetic solubility assay; assay type: physicochemical; conditions: for Solubility (μM): kinetic solubility, 50 mM PB (pH 7.4), shaken 24 hours at RT
# In short: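 Concentration in the filtrate was determined by UPLC-UV or HPLC-UV with a standard curve. Before that, compound (10 mM DMSO stock) in 50 mM PB at pH 7.4 was agitated 24 h at room temperature, then PTFE-filtered with centrifugation.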
# [5] = target: T4, CSF-1R (Homo sapiens, UniProt P07333); assay: Caliper biochemical assay, CSF-1R; conditions: Table 6
# T4 construct: purchased Invitrogen PV3249 (lot 662393N)
# T4 sequence (P07333 20-972): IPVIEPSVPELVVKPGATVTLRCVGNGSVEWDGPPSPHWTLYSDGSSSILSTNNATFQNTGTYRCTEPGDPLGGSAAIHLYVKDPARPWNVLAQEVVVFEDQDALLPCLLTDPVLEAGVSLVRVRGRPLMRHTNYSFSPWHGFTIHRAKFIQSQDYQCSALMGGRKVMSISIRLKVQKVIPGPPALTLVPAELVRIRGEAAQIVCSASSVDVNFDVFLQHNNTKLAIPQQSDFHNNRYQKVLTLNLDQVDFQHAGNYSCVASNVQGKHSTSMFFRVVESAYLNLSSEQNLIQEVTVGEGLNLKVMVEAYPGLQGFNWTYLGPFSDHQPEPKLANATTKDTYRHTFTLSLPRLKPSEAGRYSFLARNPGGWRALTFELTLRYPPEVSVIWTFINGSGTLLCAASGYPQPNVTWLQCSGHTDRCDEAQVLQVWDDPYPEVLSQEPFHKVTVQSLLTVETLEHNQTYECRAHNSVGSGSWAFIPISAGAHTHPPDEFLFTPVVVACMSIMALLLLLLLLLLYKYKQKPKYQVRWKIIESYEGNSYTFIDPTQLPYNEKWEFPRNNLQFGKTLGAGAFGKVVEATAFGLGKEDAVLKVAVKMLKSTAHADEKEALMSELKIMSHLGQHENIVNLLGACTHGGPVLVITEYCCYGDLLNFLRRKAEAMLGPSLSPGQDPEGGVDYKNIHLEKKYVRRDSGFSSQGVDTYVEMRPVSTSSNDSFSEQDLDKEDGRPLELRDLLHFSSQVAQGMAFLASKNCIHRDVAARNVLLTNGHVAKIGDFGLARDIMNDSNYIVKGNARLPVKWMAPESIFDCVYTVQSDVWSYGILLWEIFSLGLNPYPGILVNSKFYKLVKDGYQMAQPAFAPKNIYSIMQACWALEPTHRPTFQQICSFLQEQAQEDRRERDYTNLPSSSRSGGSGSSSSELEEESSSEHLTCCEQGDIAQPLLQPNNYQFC
# In short: as §1
SMILES,MDCK-BCRP: Efflux Ratio [1],MDCK-BCRP: Papp A-B [1],IC50 [2] [nM],IC50 [3] [nM],Solubility (μM) [4],IC50 [5] [nM],"solubility at 24 h ([4]; phosphate buffer, pH 7.4, aqueous buffer, kinetic from dmso stock) [µM]"
Cc1ccc(-c2noc(C3CCC(F)C3)n2)cc1NC(=O)c1cnc2ccccn12 (racemic) [Compound I-319],1.02,13.1 10^−6 cm/s,50 to 500,≤ 50,*** (a solubility greater than 2 μM and less than or equal to 10 μM),≤ 50,
Cc1ccc(-c2noc([C@H]3CCC(=O)N3)n2)cc1NC(=O)c1cnc2ccccn12 (racemic) [Compound I-327],73.2,0.28 10^−6 cm/s,5000 to 30000,50 to 500,* (a solubility greater than 50 μM),≤ 50,
Cc1ccc(-c2noc(C3(C)CC(F)(F)CN3)n2)cc1NC(=O)c1cnc2ccccn12 (racemic) [Compound I-328],4.55,6.06 10^−6 cm/s,500 to 5000,≤ 50,*** (a solubility greater than 2 μM and less than or equal to 10 μM),50 to 500,
Cc1ccc(-c2noc(C3CCS(=O)(=O)N3)n2)cc1NC(=O)c1cnc2ccccn12 (racemic) [Compound I-330],24.9,1.28 10^−6 cm/s,50 to 500,≤ 50,** (a solubility greater than 10 μM and less than or equal to 50 μM),≤ 50,
Cc1ccc(-c2noc(CC(C)O)n2)cc1NC(=O)c1cnc2ccccn12 (racemic) [Compound I-363],5.58,3.24 10^−6 cm/s,500 to 5000,≤ 50,** (a solubility greater than 10 μM and less than or equal to 50 μM),50 to 500,
Cc1ccc(-c2noc(C(C)O)n2)cc1NC(=O)c1cnc2ccccn12 (racemic) [Compound I-364],9.18,2.19 10^−6 cm/s,5000 to 30000,50 to 500,* (a solubility greater than 50 μM),≤ 50,
Cc1ccc(-c2noc(C3CCC3F)n2)cc1NC(=O)c1cnc2ccccn12 (racemic) [Compound I-376],1.02,6.24 10^−6 cm/s,50 to 500,≤ 50,**** (a solubility less than or equal to 2 μM),≤ 50,
Cc1ccc(-c2noc(C3CCC3F)n2)cc1NC(=O)c1cnc2ccccn12 (racemic) [Compound I-377],0.98,7.81 10^−6 cm/s,500 to 5000,≤ 50,*** (a solubility greater than 2 μM and less than or equal to 10 μM),≤ 50,
Cc1ccc(-c2noc(C3CCS(=O)(=O)C3)n2)cc1NC(=O)c1cnc2ccccn12 (racemic) [Compound I-389],54.3,0.87 10^−6 cm/s,,50 to 500,** (a solubility greater than 10 μM and less than or equal to 50 μM),,
Cc1ccc(-c2noc(C3CCN3)n2)cc1NC(=O)c1cnc2ccccn12 (racemic) [Compound I-394],23.2,1.42 10^−6 cm/s,5000 to 30000,≤ 50,* (a solubility greater than 50 μM),50 to 500,
"COc1ccn2c(C(=O)Nc3cc(-c4noc(CC(O)C(F)F)n4)ccc3C)cnc2c1 (single isomer, unassigned) [Compound I-76]",,,,,**** (a solubility less than or equal to 2 μM),,
"Cc1ccc(-c2noc([C@H]3C[C@@H]3F)n2)cc1NC(=O)c1cnc2cc(COCC(C)(C)O)ccn12 [Compound I-71, N-[5-[5-[(1R,2S)-2-fluorocyclopropyl]-1,2,4-oxadiazol-3-yl]-2-methyl-phenyl]-7-[(2-hydroxy-2-methyl-propoxy)methyl]imidazo[1,2-a]pyridine-3-carboxamide]",,,500 to 5000,≤ 50,,≤ 50,10 to 50
COCCOCc1ccn2c(C(=O)Nc3cc(-c4noc([C@H]5C[C@@H]5F)n4)ccc3C)cnc2c1 [Compound I-84],2.28,20.7 10^−6 cm/s,,,** (a solubility greater than 10 μM and less than or equal to 50 μM),,
Cc1ccc(-c2noc([C@H]3C[C@@H]3F)n2)cc1NC(=O)c1cnc2cc(OC(F)(F)F)ccn12 [Compound I-87],0.71,30.4 10^−6 cm/s,,,**** (a solubility less than or equal to 2 μM),,
COc1ccn2c(C(=O)Nc3cc(-c4noc(CC5CC(F)(F)C5)n4)ccc3C)cnc2c1 [Compound I-91],1.76,1.11 10^−6 cm/s,,,**** (a solubility less than or equal to 2 μM),,
CCOc1ccn2c(C(=O)Nc3cc(-c4noc([C@H]5C[C@@H]5F)n4)ccc3C)cnc2c1 [Compound I-93],1.16,21 10^−6 cm/s,,,**** (a solubility less than or equal to 2 μM),,
COc1ccn2c(C(=O)Nc3cc(-c4noc(C[C@H](C)O)n4)ccc3C)cnc2c1 [Compound I-94],8.04,5.19 10^−6 cm/s,,,**** (a solubility less than or equal to 2 μM),,
COc1ccn2c(C(=O)Nc3cc(-c4noc(C5CC(F)(F)C5)n4)ccc3C)cnc2c1 [Compound I-96],1.44,8.58 10^−6 cm/s,,,**** (a solubility less than or equal to 2 μM),,
Cc1ccc(-c2noc([C@H]3C[C@@H]3F)n2)cc1NC(=O)c1cnn2ccccc12 [Compound I-109],1.12,88.7 10^−6 cm/s,,,**** (a solubility less than or equal to 2 μM),,
COc1ccc2ncc(C(=O)Nc3cc(-c4noc(C[C@@H](C)O)n4)ccc3C)n2c1 [Compound I-119],,,,,**** (a solubility less than or equal to 2 μM),,
Cc1ccc(-c2noc(CC(O)C(F)F)n2)cc1NC(=O)c1cnc2ccccn12 (stereo not shown) [Compound I-122],29.4,1.63 10^−6 cm/s,,,**** (a solubility less than or equal to 2 μM),,
Cc1ccc(-c2cnc(N3CC(F)(F)C3)o2)cc1NC(=O)c1cnc2ccccn12 [Compound I-213],1.42,20.6 10^−6 cm/s,,≤ 50,**** (a solubility less than or equal to 2 μM),,
Cc1ccc(-c2noc(CC(C)(C)O)n2)cc1NC(=O)c1cnc2ccccn12 [Compound I-336],19.9,1.92 10^−6 cm/s,,50 to 500,* (a solubility greater than 50 μM),,
Cc1ccc(-c2noc(C3(O)CC(F)(F)C3)n2)cc1NC(=O)c1cnc2ccccn12 [Compound I-380],14.2,1.21 10^−6 cm/s,,≤ 50,**** (a solubility less than or equal to 2 μM),,
